No end group written: not given here.
Assays:
SARS-CoV-2 [1] = experiment: Prophylaxis in healthy contacts of COVID-19 patients (RT-qPCR of nasopharyngeal swabs); format: in vivo, human; details: Group II, intranasal drops 14 μg/mL daily for 6 days
Experimental: Healthy individuals, contacts of COVID-19 patients, were included in this study. Two groups of 25 healthy individuals exposed to a similar risk of contagion (Group I and Group II) were analyzed. Group II was treated daily, for 6 days, with the peptide identified in the Sequence Listing as SEQ ID NO: 1 as intranasal drops, at a concentration of 14 μg/mL. Nasopharyngeal swab samples were collected for SARS-CoV-2 detection by RT-qPCR (Roche). Sampling was carried out at the beginning of the study and 7 days after it began.

p24 (HIV) = p24 (HIV) (Human immunodeficiency virus type 1 group M subtype B, UniProt P04591); experiment: BIACORE surface plasmon resonance interaction with immobilized peptide; format: binding, HIV-1
[2] = tested on: CSF virus Margarita strain; details: 72 h
[3] = biological target: T1, Dengue 2 virus capsid protein (Dengue virus type 2, UniProt P29990); experiment: BIACORE surface plasmon resonance interaction with immobilized peptide; format: binding
T1 construct: with the Dengue 2 virus capsid protein

pAb anti-SEQ ID NO: 1 = experiment: as above; format: binding, rabbit
SARS-CoV-2 [4] = details: 96 h, 50 μM
in vitro = details: pig, PK15 cells
ZIKV E protein (Zika) = biological target: T2, ZIKV E protein (Zika) (Zika virus, UniProt A0A024B7W1); experiment: BIACORE surface plasmon resonance interaction with immobilized peptide; format: binding
T2 construct: the envelope protein of the Zika virus (ZIKV E)

[5] = tested on: capsid protein of the Influenza H1N1 virus; experiment: as above; format: binding
Dengue 2 virus = Dengue 2 virus replication in primary cultures of lung cells (PFU in VeroE6); format: cell-based; details: 100 μM, 48 hours
Experimental: The cultures were treated with the peptides for 2 or 24 hours, at concentrations of 0.01 to 100 μM before viral challenge. The medium was discarded and the cells were infected with Dengue 2 virus, at an MOI of 10 for 2 hours at 37° C. and 5% CO2. The virus was eliminated, a wash was then performed and the cultures were treated again with peptides in DMEM medium, and incubated for 48 hours at 37° C. and 5% CO2. Subsequently, the cultures were collected to assess viral performance on VeroE6 cells. For this, the cells were seeded in 24-well plates and when they reached confluence they were infected with serial 10-fold dilutions of the supernatants, incubated for 1 hour at 37° C. and 5% CO2. Next, a wash was carried out with PBS, and a layer of agar in 2× DMEM (1:1) added. The layer was allowed to solidify and incubated for 48 hours at 37° C. 5% CO2. The plates were stained with crystal violet, for the determination of the number of PFUs. The peptides inhibited between 68 and 88% of viral replication (Table 5).

T1 sequence (P29990 1-100 limits assumed): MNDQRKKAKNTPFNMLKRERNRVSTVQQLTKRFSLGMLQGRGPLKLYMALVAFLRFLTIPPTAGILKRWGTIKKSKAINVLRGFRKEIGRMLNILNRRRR
T2 sequence (A0A024B7W1 291-794): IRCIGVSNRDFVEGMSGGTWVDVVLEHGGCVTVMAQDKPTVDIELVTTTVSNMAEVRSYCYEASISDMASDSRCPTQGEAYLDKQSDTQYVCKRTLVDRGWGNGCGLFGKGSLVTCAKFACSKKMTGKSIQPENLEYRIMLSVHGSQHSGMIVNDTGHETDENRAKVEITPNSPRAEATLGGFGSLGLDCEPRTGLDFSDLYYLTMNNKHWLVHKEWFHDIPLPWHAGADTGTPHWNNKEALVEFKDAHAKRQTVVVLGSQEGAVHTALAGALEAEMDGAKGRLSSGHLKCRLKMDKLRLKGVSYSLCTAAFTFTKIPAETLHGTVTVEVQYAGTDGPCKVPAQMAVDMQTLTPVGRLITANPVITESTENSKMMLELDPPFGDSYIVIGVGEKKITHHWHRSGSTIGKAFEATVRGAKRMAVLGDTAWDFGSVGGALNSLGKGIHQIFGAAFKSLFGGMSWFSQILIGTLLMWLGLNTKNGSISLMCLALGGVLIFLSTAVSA

For RVTQMNLNDRLASLYDKV [SEQ ID NO: 1], the “SARS-CoV-2 positive cases (%)” value (SARS-CoV-2 [1]; Day 7) was 3.9%, the “SARS-CoV-2 positive cases/Total” value (SARS-CoV-2 [1]; Day 7) was 1/25 and the “SARS-CoV-2 positive cases (%)” value (SARS-CoV-2 [1]; Day of onset) was 0%. The “SARS-CoV-2 positive cases/Total” value (SARS-CoV-2 [1]; Day of onset) was 0/25, the interaction (p24 (HIV)) was “absence of interaction” and the IC50 [2] was 300 nM. For the same sequence, the Kd [3] was 1.67 nM, the Rmax [3] was 409 RU and the interaction [3] was “concentration dependent interaction”. For the same sequence, the kd [3] was 0.000413 s⁻¹, the kon ([3]; read-out: ka) was 247000 M⁻¹ s⁻¹ and the Kd (pAb anti-SEQ ID NO: 1) was 115 nM. It also gave a ka (pAb anti-SEQ ID NO: 1) of 2750 M⁻¹ s⁻¹, a kd (pAb anti-SEQ ID NO: 1) of 0.000318 s⁻¹ and an Inhibition % (SARS-CoV-2 [4]) of 83.3%. The CC50 at 96 h (in vitro) was greater than 400 µM, the Kd (ZIKV E protein (Zika)) was 1590 nM and the Rmax (ZIKV E protein (Zika)) was 2.11 × 10^4 RU. The interaction (ZIKV E protein (Zika)) was “showed interaction”, the kd (ZIKV E protein (Zika)) was 0.00154 s⁻¹ and the kon (ZIKV E protein (Zika); read-out: ka) was 965 M⁻¹ s⁻¹. The Kd [5] was 769 nM, the interaction [5] was “showed interaction” and the “Dengue 2 Inhib. %” value (Dengue 2 virus) was 81%.

Reference: patent US20250282828A1, “PEPTIDES FOR THE TREATMENT OF RESPIRATORY INFECTIONS OF VIRAL ORIGIN” (CENTRO DE INGENIERÍA GENÉTICA Y BIOTECNOLOGÍA, priority 2020, published 2025)
